According to PMC6572064, “Discovery of 2-(1-(3-(4-Chloroxyphenyl)-3-oxo- propyl)pyrrolidine-3-yl)-1H-benzo[d]imidazole-4-carboxamide: A Potent Poly(ADP-ribose) Polymerase (PARP) Inhibitor for Treatment of Cancer” (Molecules, 2019):
Where two headings read alike, the source gives them in different places.

Experiments:
PARP-2 = target: T1, PARP-2 (Homo sapiens, UniProt Q9UGN5); assay: PARP-2 inhibition assay (PARP-2 Chemiluminescent Assay Kit, BPS Bioscience); format: biochemical; conditions: for inhibition at 0.01 µM: 10 nM compound
T1 construct: purchased BPS Bioscience 80552
T1 sequence (Q9UGN5 whole entry): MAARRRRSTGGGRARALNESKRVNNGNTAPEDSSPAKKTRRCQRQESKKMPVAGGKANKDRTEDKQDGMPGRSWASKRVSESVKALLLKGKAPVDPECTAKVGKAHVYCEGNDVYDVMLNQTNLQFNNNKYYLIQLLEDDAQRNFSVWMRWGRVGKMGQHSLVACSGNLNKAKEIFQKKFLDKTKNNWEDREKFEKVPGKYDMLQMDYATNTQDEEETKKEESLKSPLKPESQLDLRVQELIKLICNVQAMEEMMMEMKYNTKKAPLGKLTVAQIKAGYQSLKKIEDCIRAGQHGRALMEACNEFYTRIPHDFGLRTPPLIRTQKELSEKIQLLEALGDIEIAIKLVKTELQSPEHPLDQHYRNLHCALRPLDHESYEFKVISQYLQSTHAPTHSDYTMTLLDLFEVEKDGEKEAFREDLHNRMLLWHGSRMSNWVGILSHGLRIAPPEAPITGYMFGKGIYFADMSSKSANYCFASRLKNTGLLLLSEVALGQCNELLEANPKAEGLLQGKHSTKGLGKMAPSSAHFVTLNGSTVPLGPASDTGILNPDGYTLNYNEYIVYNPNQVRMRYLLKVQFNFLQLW
Description: (§1) The PARP-1 and PARP-2 inhibition assays were performed in outsourcing, by a CRO company, Shanghai Medicilon Inc. (Shanghai, China). […] Briefly, PARP-1 or PARP-2 biotinylated substrate was incubated with compounds or solvent control at varying concentrations and an assay buffer containing the PARP-1 or PARP-2 enzyme.

PARP-1 = target: T2, PARP-1 (Homo sapiens, UniProt P09874); assay: PARP-1 inhibition assay (PARP-1 Chemiluminescent Assay Kit, BPS Bioscience); format: biochemical; conditions: for inhibition at 0.01 µM: 10 nM compound
T2 construct: purchased BPS Bioscience 80569
T2 sequence (P09874 whole entry): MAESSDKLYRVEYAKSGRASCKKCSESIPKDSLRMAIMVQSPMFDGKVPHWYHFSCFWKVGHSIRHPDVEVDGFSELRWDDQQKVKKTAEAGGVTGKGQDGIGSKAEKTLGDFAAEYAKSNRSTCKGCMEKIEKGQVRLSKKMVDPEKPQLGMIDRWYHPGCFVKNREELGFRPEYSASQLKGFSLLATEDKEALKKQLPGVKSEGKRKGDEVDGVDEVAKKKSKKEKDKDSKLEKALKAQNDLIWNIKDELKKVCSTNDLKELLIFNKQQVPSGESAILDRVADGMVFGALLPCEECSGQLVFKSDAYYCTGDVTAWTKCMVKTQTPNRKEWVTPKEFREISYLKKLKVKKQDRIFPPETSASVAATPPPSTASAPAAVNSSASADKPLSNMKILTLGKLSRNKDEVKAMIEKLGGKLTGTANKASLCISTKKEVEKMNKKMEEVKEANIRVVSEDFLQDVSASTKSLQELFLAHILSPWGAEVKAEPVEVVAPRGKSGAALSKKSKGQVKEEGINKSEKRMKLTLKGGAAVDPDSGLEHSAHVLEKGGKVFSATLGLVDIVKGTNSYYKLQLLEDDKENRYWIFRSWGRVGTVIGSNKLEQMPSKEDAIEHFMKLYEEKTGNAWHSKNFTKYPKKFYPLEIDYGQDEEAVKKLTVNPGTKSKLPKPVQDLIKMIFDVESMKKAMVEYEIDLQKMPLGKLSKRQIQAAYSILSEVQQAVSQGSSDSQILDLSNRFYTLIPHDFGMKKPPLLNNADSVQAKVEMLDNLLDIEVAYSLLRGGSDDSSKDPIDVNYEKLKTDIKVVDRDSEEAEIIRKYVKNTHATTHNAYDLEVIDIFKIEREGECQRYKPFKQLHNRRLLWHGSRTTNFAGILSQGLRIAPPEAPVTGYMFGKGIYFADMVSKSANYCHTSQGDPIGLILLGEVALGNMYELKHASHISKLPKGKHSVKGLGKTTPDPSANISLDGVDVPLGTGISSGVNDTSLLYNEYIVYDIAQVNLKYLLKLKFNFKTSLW
Description: as §1

[1] = tested on: CAPAN-1 (a BRCA-2-mutated pancreatic cancer cell line); assay: Cell proliferation assay, three-day, CellTiter-Glo, CAPAN-1; format: cell-based; conditions: for IC50 / inhibition at 0.00508 µM / inhibition at 0.0152 µM / inhibition at 0.0457 µM / inhibition at […] / inhibition at 0.41 µM / inhibition at 1.23 µM / inhibition at 3.7 µM / inhibition at 11.11 µM / inhibition at 33.33 µM / inhibition at 100 µM: Homo sapiens; for inhibition at 0.00508 µM: CAPAN-1, 0.00508 uM; for inhibition at 0.0152 µM: CAPAN-1, 0.0152 uM; for inhibition at 0.0457 µM: CAPAN-1, 0.0457 uM; for inhibition at […]: CAPAN-1, 0.14 uM; for inhibition at 0.41 µM: CAPAN-1, 0.41 uM; for inhibition at 1.23 µM: CAPAN-1, 1.23 uM; for inhibition at 3.7 µM: CAPAN-1, 3.70 uM; for inhibition at 11.11 µM: CAPAN-1, 11.11 uM; for inhibition at 33.33 µM: CAPAN-1, 33.33 uM; for inhibition at 100 µM: CAPAN-1, 100.00 uM
How it was run: (§2)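 Cells seeded overnight in 384-well plates, then exposed to compounds (DMSO stock diluted in medium) for 72 h at 37 °C, 5% CO2. Viability read as CellTiter-Glo luminescence after 60 min at room temperature.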

[2] = tested on: MDA-MB-436 (a BRCA-1-mutated breast cancer cell line); assay: Cell proliferation assay, three-day, CellTiter-Glo, MDA-MB-436; format: cell-based; conditions: for inhibition at 0.00508 µM / inhibition at 0.0152 µM / inhibition at 0.0457 µM / inhibition at 0.41 µM / inhibition at 1.23 µM / inhibition at 3.7 µM / inhibition at 11.11 µM / inhibition at 33.33 µM / inhibition at 100 µM / IC50: Homo sapiens; for inhibition at 0.00508 µM: MDA-MB-436, MDA-MB-436, Conc. 0.00508 uM; for inhibition at 0.0152 µM: MDA-MB-436, MDA-MB-436, Conc. 0.0152 uM; for inhibition at 0.0457 µM: MDA-MB-436, MDA-MB-436, Conc. 0.0457 uM; for inhibition at 0.41 µM: MDA-MB-436, MDA-MB-436, Conc. 0.41 uM; for inhibition at 1.23 µM: MDA-MB-436, MDA-MB-436, Conc. 1.23 uM; for inhibition at 3.7 µM: MDA-MB-436, MDA-MB-436, Conc. 3.70 uM; for inhibition at 11.11 µM: MDA-MB-436, MDA-MB-436, Conc. 11.11 uM; for inhibition at 33.33 µM: MDA-MB-436, MDA-MB-436, Conc. 33.33 uM; for inhibition at 100 µM: MDA-MB-436, MDA-MB-436, Conc. 100.00 uM
How it was run: as §2

NC(=O)c1cccc2[nH]c(C3CCN(CCC(=O)c4ccc(Cl)cc4)C3)nc12 (centres unmarked) [Compound 5cj] showed an inhibition at 0.01 µM (PARP-2; supplement sheet, read-out: 10 nM inhibition% PAPR-2) of 65.5%, an inhibition at 0.01 µM (PARP-2; read-out: PARP-2 Inhibition % (10 nM)) of 65.6% and an IC50 (PARP-2; read-out: PARP-2 IC50) of 0.0042 µM. It also gave an IC50 (PARP-2; supplement sheet, read-out: IC50 PAPR-2) of 0.00422 µM, an inhibition at 0.01 µM (PARP-1; supplement sheet, read-out: 10 nM inhibition% PAPR-1) of 65.7% and an inhibition at 0.01 µM (PARP-1; read-out: PARP-1 Inhibition % (10 nM)) of 65.7%. It also gave an IC50 (PARP-1; read-out: PARP-1 IC50) of 0.0039 µM, an IC50 (PARP-1; supplement sheet, read-out: IC50 PAPR-1) of 0.00389 µM and a LogIC50 ([1]; CAPAN-1, curve-fit output, Log (uM)) of 1.057. For the same compound, the IC50 ([1]; CAPAN-1, 72 h, CellTiter-Glo, read-out: CAPAN-1 IC50) was 11.4 µM, the inhibition at 0.00508 µM ([1]; replicate 1, read-out: Inh % 1) was 9.5% and the inhibition at 0.00508 µM ([1]; replicate 2, read-out: Inh % 2) was -1.4%. The inhibition at 0.0152 µM ([1]; replicate 1, read-out: Inh % 1) was 3.1%, the inhibition at 0.0152 µM ([1]; replicate 2, read-out: Inh % 2) was -2.2% and the inhibition at 0.0457 µM ([1]; replicate 1, read-out: Inh % 1) was 3.3%. For the same compound, the inhibition at 0.0457 µM ([1]; replicate 2, read-out: Inh % 2) was 3.4%, the inhibition at […] ([1]; replicate 1, read-out: Inh % 1) was 13.7% and the inhibition at […] ([1]; replicate 2, read-out: Inh % 2) was -6.2%. For the same compound, the inhibition at 0.41 µM ([1]; replicate 1, read-out: Inh % 1) was 2.9%, the inhibition at 0.41 µM ([1]; replicate 2, read-out: Inh % 2) was 7.7% and the inhibition at 1.23 µM ([1]; replicate 1, read-out: Inh % 1) was -2.6%. The inhibition at 1.23 µM ([1]; replicate 2, read-out: Inh % 2) was 0.5%, the inhibition at 3.7 µM ([1]; replicate 1, read-out: Inh % 1) was 7.7% and the inhibition at 3.7 µM ([1]; replicate 2, read-out: Inh % 2) was 2.2%. The inhibition at 11.11 µM ([1]; replicate 1, read-out: Inh % 1) was 54.1%, the inhibition at 11.11 µM ([1]; replicate 2, read-out: Inh % 2) was 45.1% and the inhibition at 33.33 µM ([1]; replicate 1, read-out: Inh % 1) was 97.9%. It also gave an inhibition at 33.33 µM ([1]; replicate 2, read-out: Inh % 2) of 96.8%, an inhibition at 100 µM ([1]; replicate 1, read-out: Inh % 1) of 99.6% and an inhibition at 100 µM ([1]; replicate 2, read-out: Inh % 2) of 98.9%. For the same compound, the IC50 ([1]; CAPAN-1, 72 h, supplement Summary sheet, read-out: IC50) was 11.4 µM, the IC50 ([1]; CAPAN-1, curve-fit output, concentrations in uM, read-out: IC50) was 11.4 µM and the inhibition at 0.00508 µM ([2]; replicate 1, read-out: Inh % 1) was -7.9%. For the same compound, the inhibition at 0.00508 µM ([2]; replicate 2, read-out: Inh % 2) was -1.6%, the inhibition at 0.0152 µM ([2]; replicate 1, read-out: Inh % 1) was -3% and the inhibition at 0.0152 µM ([2]; replicate 2, read-out: Inh % 2) was -9.8%. For the same compound, the inhibition at 0.0457 µM ([2]; replicate 1, read-out: Inh % 1) was -14.2%, the inhibition at 0.0457 µM ([2]; replicate 2, read-out: Inh % 2) was -14.3% and the inhibition at 0.41 µM ([2]; replicate 1, read-out: Inh % 1) was -16.8%. It also gave an inhibition at 0.41 µM ([2]; replicate 2, read-out: Inh % 2) of -14.6%, an inhibition at 1.23 µM ([2]; replicate 1, read-out: Inh % 1) of -8.7% and an inhibition at 1.23 µM ([2]; replicate 2, read-out: Inh % 2) of -14.5%. The inhibition at 3.7 µM ([2]; replicate 1, read-out: Inh % 1) was -10.6%, the inhibition at 3.7 µM ([2]; replicate 2, read-out: Inh % 2) was -13.6% and the inhibition at 11.11 µM ([2]; replicate 1, read-out: Inh % 1) was 10.8%. The inhibition at 11.11 µM ([2]; replicate 2, read-out: Inh % 2) was 8.2%, the inhibition at 33.33 µM ([2]; replicate 1, read-out: Inh % 1) was 93.8% and the inhibition at 33.33 µM ([2]; replicate 2, read-out: Inh % 2) was 82.1%. For the same compound, the inhibition at 100 µM ([2]; replicate 1, read-out: Inh % 1) was 99.7%, the inhibition at 100 µM ([2]; replicate 2, read-out: Inh % 2) was 98.9% and the IC50 ([2]; MDA-MB-436, 72 h, CellTiter-Glo, read-out: MDA-MB-436 IC50) was 17.4 µM. For the same compound, the IC50 ([2]; MDA-MB-436, 72 h, supplement Summary sheet, read-out: IC50) was 17.4 µM, the IC50 ([2]; MDA-MB-436, curve fit list, no unit in the cell, concentration in uM, read-out: IC50) was 17.4 µM and the LogIC50 ([2]; MDA-MB-436, curve fit on Log (uM) concentrations) was 1.241. It also gave a Bottom ([2]; MDA-MB-436, curve fit parameter (Inh %)) of -11.12 and a Top ([2]; MDA-MB-436, curve fit parameter (Inh %), '= 100.0' is a constrained value) of 99.53.
